Experiment [1] deals with Human umbilical vein endothelial cells. The experiment is described as follows: inhibition of human umbilical vein endothelial cell growth (MTT). The format is cell-based. The note with it: rFGF 2 ng/ml, 5-day culture, concentration giving 50% OD value of control; for IC50: Homo sapiens, Endothelial cell, 120 h, read-out: IC₅₀. The method, then: Human umbilical vein endothelial cells were isolated by perfusion of an umbilical vein with a trypsin-containing medium. The cells were cultured in sequence in GIT medium (Nihon Pharm. In.) supplemented with 2.5% fetal bovine serum and 2.0 ng/ml or recombinant human fibroblast growth factor (hereinafter simply referred to rFGF, prepared at Biotechnology Research Laboratories, Takeda Chemical Industries, Ltd.).
A suspension of human vein endothelial cells at the cell density of 2 x 10³ (100 µl) was seeded on 96-well incubation plate (Nunc, 1-67008), and incubation was conducted in a gas-controlled thermostat vessel. […] After 5-day culture, the medium was removed by suction, 100 µl of 1 mg/ml of MTT solution [3-(4,5-dimethyl-2-thiazolyl)-2,5-diphenyl-2H-tetrazolium bromide was dissolved in the medium] was added and kept warming for 4 hours. Then, 100 µl of a 10% SDS solution (aqueous solution of sodium dodecyl sulfate) was added, and the mixture was kept warming for 5-6 hours. The cells and MTT pigment were solubilized, and the optical density ([…]) was measured using a spectrophotometer. The OD value of the control group to which no test sample was added was set as 100%, and the activity of each test sample for inhibiting endothelial cell growth was shown in Table 2 by the concentration of the test compound giving 50% OD value, i.e. IC₅₀ value.

Experiment [2] relates to bFGF-induced angiogenesis. The experiment in a line: angiogenesis inhibitory activity by the rat cornea micropocket method. It is filed as in vivo, Sprague-Dawley rats. The note with it: number of rats on which angiogenesis inhibitory activity was observed relative to the number of rats tested, sample pellet 20 µg beside bFGF (250 ng) pellet in cornea, observed after 10 days; for responders at 20 µg/pellet: Rattus norvegicus, 240 h, read-out: Inhibitory Rate (converted). How it is done:
The object compounds (I) obtained in the Working Examples given below were evaluated for angiogenesis inhibitory activity by the rat cornea micropocket method.
Essentially the same method of Gimbrone et al. [J. National Cancer Institute, 52, 413-419 (1974)] was followed. Thus, adult male Sprague-Dawley rats 11 to 16 week old) were anesthetized with nembutal and locally anesthetized by instillation of xylocaine eyedrops onto the eyeball. The cornea was incised to a length of about 2 mm at about 2 mm inside from the corneal circumference by means of an injection needle, and a sustained release pellet containing basic fibroblast growth growth factor (bFGF; bovine brain-derived, purified product; R & D Inc.) and a sustained release pellet containing the test sample were inserted side by side into the incision so that the bFGF pellet was located on the central side in the cornea. In the control group, the bFGF pellet and a sample-free pellet were inserted into the cornea. After 10 days, the cornea was observed under a stereoscopic microscope.
The sustained release pellets were prepared in the following manner. An ethylene-vinyl acetate copolymer (Takeda Chemical Industries, Ltd.) was dissolved in dichloromethane to a concentration of 8%. A 3 µl portion of the solution was air-dried on a glass dish, an aqueous solution of bFGF (250 ng) was then placed thereon and air-dried and, finally 3 µl of the above ethylene-vinyl acetate copolymer solution was placed further thereon and air-dried to give a sandwich sheet. This sandwich sheet was made round into a bFGF pellet. The test sample pellets were prepared by dissolving each sample in ethanol in a concentration of 20 µg/2 µl, mixing the solution with 6 µl of an ethylene-vinyl acetate copolymer solution, air-drying the mixed solution in a glass dish and making the thus-obtained sheet round.
Incidentally, in the Table 1 below, the inhibitory rate means the number of rats on which angiogenesis inhibitory activity was observed relative to the number of rats tested.

Converted amounts (≈) assume the structure as drawn.

For `CO[C@@H]1[C@H](NC(=O)c2ccccc2)CC[C@]2(CO2)[C@H]1[C@@]1(C)O[C@@H]1CC=C(C)C` [Example 8, 6α-Benzoylamino-6-desoxyfumagillol], the IC50 in experiment [1] amounted to 0.2 ng/mL (≈ 0.519 nM). In experiment [2], the responders at 20 µg/pellet was 85.7%. In the case of `CO[C@@H]1[C@H](Nc2ccccc2)CC[C@]2(CO2)[C@H]1[C@@]1(C)O[C@@H]1CC=C(C)C` [Example 2, 6α-Phenylamino-6-desoxyfumagillol], in experiment [2], the responders at 20 µg/pellet was 62.5%. Still for that read-out and setting: the value for `CO[C@@H]1[C@@H](N2CCCC2)CC[C@]2(CO2)[C@H]1[C@@]1(C)O[C@@H]1CC=C(C)C` [Example 19, 6β-Pyrrolidino-6-desoxyfumagillol] was 66.7%. For `CO[C@@H]1[C@H](NC(=O)Nc2cccc3ccccc23)CC[C@]2(CO2)[C@H]1[C@@]1(C)O[C@@H]1CC=C(C)C` [Example 11, 6α-[N′-(1-naphthyl)ureido]-6-desoxyfumagillol], the IC50 in experiment [1] came to 0.34 ng/mL (≈ 0.755 nM). Besides, in experiment [2], the responders at 20 µg/pellet was 100%. The matching figures for `CO[C@@H]1[C@H](NC(=S)Nc2cccc3ccccc23)CC[C@]2(CO2)[C@H]1[C@@]1(C)O[C@@H]1CC=C(C)C` [Example 10, 6α-[N′-(1-naphthyl)thioureido]-6-desoxyfumagillol]: 8.13 ng/mL (≈ 17.4 nM) and 40%. For `CO[C@@H]1[C@H](NC(=O)OCC(C)C)CC[C@]2(CO2)[C@H]1[C@@]1(C)O[C@@H]1CC=C(C)C` [Example 7, 6α-(Isobutyloxy-carbonylamino)-6-desoxyfumagillol], in that order: 0.17 ng/mL (≈ 0.446 nM) and 100%. For `CO[C@@H]1[C@H](N(C)C(C)=O)CC[C@]2(CO2)[C@H]1[C@@]1(C)O[C@@H]1CC=C(C)C` [Example 3, 6α-(Acetyl)methylamino-6-desoxyfumagillol], in that order: 3.21 ng/mL (≈ 9.51 nM) and 50%. Take `CO[C@@H]1[C@H](N)CC[C@]2(CO2)[C@H]1[C@@]1(C)O[C@@H]1CC=C(C)C` [Example 1, 6α-Amino-desoxyfumagillol]: in experiment [1], the IC50 was determined as 7.92 ng/mL (≈ 28.1 nM).

Regarding `CO[C@@H]1[C@H](NC(=O)NC(=O)CCl)CC[C@]2(CO2)[C@H]1[C@@]1(C)O[C@@H]1CC=C(C)C` [Example 9, 6α-(N′-chloroacetylureido)-6-desoxyfumagillol], the IC50 in experiment [1] turned out to be 0.057 ng/mL (≈ 0.142 nM). In addition, the responders at 20 µg/pellet in experiment [2] was 100%. As to `CO[C@H]1[C@H]([C@@]2(C)O[C@@H]2CC=C(C)C)[C@]2(CC[C@@H]1[N+]1(C)CCCC1)CO2` [Example 20, 6β-Pyrrolidino-6-desoxyfumagillol methyl iodide], in experiment [2], the responders at 20 µg/pellet is 42.9%. As for `CO[C@@H]1[C@H](NS(=O)(=O)c2ccc(C)cc2)CC[C@]2(CO2)[C@H]1[C@@]1(C)O[C@@H]1CC=C(C)C` [Example 6, 6α-(p-Toluenesulfonylamino)-6-desoxyfumagillol], the IC50 in experiment [1] was 7.04 ng/mL (≈ 16.2 nM). Besides, the responders at 20 µg/pellet in experiment [2] is 75%. For the compound `CO[C@@H]1[C@@H](N)CC[C@]2(CO2)[C@H]1[C@@]1(C)O[C@@H]1CC=C(C)C` [Example 16, 6β-Amino-6-desoxyfumagillol], the IC50 in experiment [1] was 9.49 ng/mL (≈ 33.7 nM). The responders at 20 µg/pellet in experiment [2] was 50%. Consider `CO[C@@H]1[C@H](NC(=O)NCCCl)CC[C@]2(CO2)[C@H]1[C@@]1(C)O[C@@H]1CC=C(C)C` [Example 12, 6α-[N′-(2-chloroethyl)ureido]-6-desoxyfumagillol], for which the IC50 in experiment [1] was found to be 1.16 ng/mL (≈ 3 nM). As to `CO[C@@H]1[C@H](NC(C)=O)CC[C@]2(CO2)[C@H]1[C@@]1(C)O[C@@H]1CC=C(C)C` [Example 5, 6α-Acetylamino-6-desoxyfumagillol], the IC50 in experiment [1] is 0.06 ng/mL (≈ 0.186 nM). For the same compound, in experiment [2], the responders at 20 µg/pellet was 57.1%.

Consider `CO[C@@H]1[C@H](NC(N)=O)CC[C@]2(CO2)[C@H]1[C@@]1(C)O[C@@H]1CC=C(C)C` [Example 13, 6α-Ureido-6-desoxyfumagillol], for which, in experiment [1], the IC50 was found to be 0.1 ng/mL (≈ 0.308 nM). For the same compound, in experiment [2], the responders at 20 µg/pellet is 100%.

In experiment [1], “6β-(N′-chloroacetylureido)-4′,5′-dihydro-6-desoxyfumagillol [Example 14]” yielded an IC₅₀ of 0.14 ng/mL. Moreover, in experiment [2], the “Inhibitory Rate” value is given as 5/5.

Source of the values: patent publication EP0386667B1, “6-Amino-6-desoxyfumagillols, production and use thereof” (Takeda Chemical Industries, Ltd., priority 1989, dated 1990).
